Assays:
Type in all cases: functional
NCI-H460 = assay: Growth inhibition of human NCI-H460 cells after 48 hrs by sulforhodamine B assay; conditions: NCI-H460, 48 h
IGROV-1 = assay: Growth inhibition of human IGROV1 cells after 48 hrs by sulforhodamine B assay; conditions: IGROV-1, 48 h
COLO 205 = assay: Growth inhibition of human COLO205 cells after 48 hrs by sulforhodamine B assay; conditions: COLO 205, 48 h
MCF7 = assay: Growth inhibition of human MCF7 cells after 48 hrs by sulforhodamine B assay; conditions: MCF7, 48 h
T47D = assay: Growth inhibition of human T47D cells after 48 hrs by sulforhodamine B assay
Paracentrotus lividus [1] = assay: Antimitotic activity in sea urchin fertilized egg assessed as cleavage arrest treated at 8 to 20 mins post-fertilization measured at 2.5 to 5.5 hrs post-fertilization
KM12 = assay: Growth inhibition of human KM12 cells after 48 hrs by sulforhodamine B assay; conditions: KM12, 48 h
SK-MEL-5 = assay: Growth inhibition of human SK-MEL-5 cells after 48 hrs by sulforhodamine B assay; conditions: SK-MEL-5, 48 h
Paracentrotus lividus [2] = assay: Antimitotic activity in sea urchin fertilized egg assessed as cleavage alteration treated at 8 to 20 mins post-fertilization measured at 2.5 to 5.5 hrs post-fertilization
PC-3 = assay: Growth inhibition of human PC3 cells after 48 hrs by sulforhodamine B assay; conditions: PC-3, 48 h
ACHN = assay: Growth inhibition of human ACHN cells after 48 hrs by sulforhodamine B assay
Paracentrotus lividus [3] = assay: Microtubule destabilizing activity in sea urchin free-swimming blastula assessed as embryo spinning treated at 9 to 10 hrs post-fertilization measured after 0.15 to 15 hrs
HL-60(TB) = assay: Growth inhibition of human HL-60(TB) cells after 48 hrs by sulforhodamine B assay; conditions: HL-60, 48 h
HCT-116 = assay: Growth inhibition of human HCT116 cells after 48 hrs by sulforhodamine B assay; conditions: HCT-116, 48 h
BT-549 = assay: Growth inhibition of human BT549 cells after 48 hrs by sulforhodamine B assay; conditions: BT-549, 48 h
SK-MEL-28 = assay: Growth inhibition of human SK-MEL-28 cells after 48 hrs by sulforhodamine B assay; conditions: SK-MEL-28, 48 h
[4] = Growth inhibition of human Hs 578T cells after 48 hrs by sulforhodamine B assay
SR = assay: Growth inhibition of human SR cells after 48 hrs by sulforhodamine B assay
HT-29 = assay: Growth inhibition of human HT-29 cells after 48 hrs by sulforhodamine B assay; conditions: HT-29, 48 h
[5] = Growth inhibition of human UACC257 cells after 48 hrs by sulforhodamine B assay; conditions: UACC-257, 48 h
NCI-H522 = assay: Growth inhibition of human NCI-H522 cells after 48 hrs by sulforhodamine B assay; conditions: NCI-H522, 48 h
SN12C = assay: Growth inhibition of human SN12C cells after 48 hrs by sulforhodamine B assay
MDA-MB-435 = assay: Growth inhibition of human MDA-MB-435 cells after 48 hrs by sulforhodamine B assay; conditions: MDA-MB-435, 48 h
SNB-75 = assay: Growth inhibition of human SNB75 cells after 48 hrs by sulforhodamine B assay; conditions: SNB-75, 48 h
MOLT-4 = assay: Growth inhibition of human MOLT4 cells after 48 hrs by sulforhodamine B assay; conditions: MOLT-4, 48 h
OVCAR-3 = assay: Growth inhibition of human OVCAR3 cells after 48 hrs by sulforhodamine B assay; conditions: OVCAR-3, 48 h
SF-295 = assay: Growth inhibition of human SF295 cells after 48 hrs by sulforhodamine B assay; conditions: SF-295, 48 h
A549 = assay: Growth inhibition of human A549/ATCC cells after 48 hrs by sulforhodamine B assay; conditions: A549, 48 h
[6] = Growth inhibition of human HCC2998 cells after 48 hrs by sulforhodamine B assay; conditions: HCC 2998, 48 h
786-0 = assay: Growth inhibition of human 786-0 cells after 48 hrs by sulforhodamine B assay; conditions: 786-0, 48 h
[7] = Growth inhibition of human OVCAR5 cells after 48 hrs by sulforhodamine B assay; conditions: OVCAR-5, 48 h
U-251 = assay: Growth inhibition of human U251 cells after 48 hrs by sulforhodamine B assay; conditions: U-251, 48 h
HOP-62 = assay: Growth inhibition of human HOP62 cells after 48 hrs by sulforhodamine B assay; conditions: HOP-62, 48 h
[8] = Growth inhibition of human NCI-ADR-RES cells after 48 hrs by sulforhodamine B assay
UACC-62 = assay: Growth inhibition of human UACC62 cells after 48 hrs by sulforhodamine B assay; conditions: UACC-62, 48 h
SF-268 = assay: Growth inhibition of human SF268 cells after 48 hrs by sulforhodamine B assay; conditions: SF-268, 48 h
[9] = Growth inhibition of human RXF393 cells after 48 hrs by sulforhodamine B assay; conditions: RXF 393, 48 h
[10] = Growth inhibition of human UO31 cells after 48 hrs by sulforhodamine B assay; conditions: UO-31, 48 h
[11] = Growth inhibition of human SF539 cells after 48 hrs by sulforhodamine B assay; conditions: SF-539, 48 h
[12] = Growth inhibition of human HOP92 cells after 48 hrs by sulforhodamine B assay; conditions: HOP-92, 48 h
[13] = Growth inhibition of human OVCAR4 cells after 48 hrs by sulforhodamine B assay; conditions: OVCAR-4, 48 h
LOX IMVI = assay: Growth inhibition of human LOXIMVI cells after 48 hrs by sulforhodamine B assay
NCI-H23 = assay: Growth inhibition of human NCI-H23 cells after 48 hrs by sulforhodamine B assay; conditions: NCI-H23, 48 h
SW-620 = assay: Growth inhibition of human SW620 cells after 48 hrs by sulforhodamine B assay; conditions: SW-620, 48 h
HCT-15 = assay: Growth inhibition of human HCT15 cells after 48 hrs by sulforhodamine B assay; conditions: HCT-15, 48 h
SK-MEL-2 = assay: Growth inhibition of human SK-MEL-2 cells after 48 hrs by sulforhodamine B assay; conditions: SK-MEL-2, 48 h
NCI-H226 = assay: Growth inhibition of human NCI-H226 cells after 48 hrs by sulforhodamine B assay; conditions: NCI-H226, 48 h
MDA-MB-231 = assay: Growth inhibition of human MDA-MB-231 cells after 48 hrs by sulforhodamine B assay; conditions: MDA-MB-231, 48 h
TK-10 = assay: Growth inhibition of human TK10 cells after 48 hrs by sulforhodamine B assay; conditions: TK-10, 48 h
A498 = assay: Growth inhibition of human A498 cells after 48 hrs by sulforhodamine B assay; conditions: A498, 48 h
SNB-19 = assay: Growth inhibition of human SNB19 cells after 48 hrs by sulforhodamine B assay; conditions: SNB-19, 48 h
SK-OV-3 = assay: Growth inhibition of human SKOV3 cells after 48 hrs by sulforhodamine B assay; conditions: SK-OV-3, 48 h
DU-145 = assay: Growth inhibition of human DU145 cells after 48 hrs by sulforhodamine B assay; conditions: DU-145, 48 h
OVCAR-8 = assay: Growth inhibition of human OVCAR8 cells after 48 hrs by sulforhodamine B assay; conditions: OVCAR-8, 48 h
[14] = Growth inhibition of human EKVX cells after 48 hrs by sulforhodamine B assay
MDA-MB-468 = assay: Growth inhibition of human MDA-MB-468 cells after 48 hrs by sulforhodamine B assay; conditions: MDA-MB-468, 48 h
M14 = assay: Growth inhibition of human M14 cells after 48 hrs by sulforhodamine B assay; conditions: M14, 48 h
NCI-H322M = assay: Growth inhibition of human NCI-H322M cells after 48 hrs by sulforhodamine B assay
CCRF-CEM = assay: Growth inhibition of human CCRF-CEM cells after 48 hrs by sulforhodamine B assay
Malme-3M = assay: Growth inhibition of human MALME-3M cells after 48 hrs by sulforhodamine B assay
RPMI-8226 = assay: Growth inhibition of human RPMI8226 cells after 48 hrs by sulforhodamine B assay; conditions: RPMI-8226, 48 h
CAKI-1 = assay: Growth inhibition of human CAKI-1 cells after 48 hrs by sulforhodamine B assay; conditions: CAKI-1, 48 h

For `COc1ccc(-c2c(-c3cc4c(c(OC)c3OC)OCO4)noc2N)cc1`, the GI50 (NCI-H460) was 364 nM, the GI50 (IGROV-1) was 683 nM and the GI50 (COLO 205) was 272 nM. It also gave a GI50 (MCF7) of 280 nM, a GI50 (T47D) of 568 nM and an EC (Paracentrotus lividus [1]) of 0.2 µM. The GI50 (KM12) was 112 nM, the GI50 (SK-MEL-5) was 238 nM and the EC (Paracentrotus lividus [2]) was 0.02 µM. It also gave a GI50 (PC-3) of 300 nM, a GI50 (ACHN) of 831 nM and an EC (Paracentrotus lividus [3]) of 2 µM. For the same molecule, the GI50 (HL-60(TB)) was 189 nM, the GI50 (HCT-116) was 314 nM and the GI50 (BT-549) was 848 nM. The GI50 (SK-MEL-28) was 497 nM, the GI50 [4] was 438 nM and the GI50 (SR) was 35.9 nM. For the same molecule, the GI50 (HT-29) was 262 nM, the GI50 [5] was 458 nM and the GI50 (NCI-H522) was 65.5 nM. For the same molecule, the GI50 (SN12C) was 818 nM, the GI50 (MDA-MB-435) was 29.2 nM and the GI50 (SNB-75) was 138 nM. It also gave a GI50 (MOLT-4) of 674 nM, a GI50 (OVCAR-3) of 184 nM and a GI50 (SF-295) of 274 nM. The GI50 (A549) was 523 nM, the GI50 [6] was 524 nM and the GI50 (786-0) was 578 nM. It also gave a GI50 [7] of 2100 nM, a GI50 (U-251) of 359 nM and a GI50 (HOP-62) of 551 nM. It also gave a GI50 [8] of 126 nM, a GI50 (UACC-62) of 513 nM and a GI50 (SF-268) of 641 nM. For the same molecule, the GI50 [9] was 335 nM, the GI50 [10] was 669 nM and the GI50 [11] was 285 nM. For the same molecule, the GI50 [12] was 837 nM, the GI50 [13] was 927 nM and the GI50 (LOX IMVI) was 523 nM. It also gave a GI50 (NCI-H23) of 391 nM, a GI50 (SW-620) of 210 nM and a GI50 (HCT-15) of 352 nM. The GI50 (SK-MEL-2) was 362 nM, the GI50 (NCI-H226) was 855 nM and the GI50 (MDA-MB-231) was 983 nM. The GI50 (TK-10) was 202 nM, the GI50 (A498) was 374 nM and the GI50 (SNB-19) was 672 nM. The GI50 (SK-OV-3) was 338 nM, the GI50 (DU-145) was 487 nM and the GI50 (OVCAR-8) was 448 nM. The GI50 [14] was 23600 nM, the GI50 (MDA-MB-468) was 138 nM and the GI50 (M14) was 244 nM. For the same molecule, the GI50 (NCI-H322M) was 625 nM.
For `COc1ccc(-c2c(-c3cc(OC)c4c(c3)OCCO4)noc2N)cc1`, the GI50 (NCI-H460) was under 10 nM, the GI50 (IGROV-1) was 13.6 nM and the GI50 (COLO 205) was under 10 nM. The GI50 (MCF7) was under 10 nM, the GI50 (T47D) was 27.2 nM and the EC (Paracentrotus lividus [1]) was 0.01 µM. For the same molecule, the GI50 (KM12) was under 10 nM, the GI50 (SK-MEL-5) was under 10 nM and the EC (Paracentrotus lividus [2]) was 0.002 µM. For the same molecule, the GI50 (PC-3) was 24.8 nM, the GI50 (ACHN) was 12.2 nM and the EC (Paracentrotus lividus [3]) was 0.1 µM. The GI50 (HL-60(TB)) was 10.4 nM, the GI50 (HCT-116) was under 10 nM and the GI50 (CCRF-CEM) was 15.5 nM. It also gave a GI50 (BT-549) of 28.5 nM, a GI50 (SK-MEL-28) of 17 nM and a GI50 (Malme-3M) of 23600 nM. For the same molecule, the GI50 [4] was under 10 nM, the GI50 (SR) was under 10 nM and the GI50 (HT-29) was under 10 nM. For the same molecule, the GI50 (NCI-H522) was under 10 nM, the GI50 (SN12C) was 31.8 nM and the GI50 (MDA-MB-435) was under 10 nM. The GI50 (MOLT-4) was 39.8 nM, the GI50 (OVCAR-3) was under 10 nM and the GI50 (SF-295) was under 10 nM. It also gave a GI50 (A549) of 10.1 nM, a GI50 [6] of 20.1 nM and a GI50 (786-0) of 14.5 nM. For the same molecule, the GI50 (RPMI-8226) was 33.8 nM, the GI50 [7] was 50.5 nM and the GI50 (U-251) was 14.8 nM. The GI50 (HOP-62) was under 10 nM, the GI50 [8] was under 10 nM and the GI50 (UACC-62) was under 10 nM. For the same molecule, the GI50 (SF-268) was 30 nM, the GI50 [9] was under 10 nM and the GI50 [10] was 57.8 nM. It also gave a GI50 [11] of 13 nM, a GI50 [12] of 446 nM and a GI50 [13] of 78.7 nM. It also gave a GI50 (LOX IMVI) of 11.2 nM, a GI50 (NCI-H23) of 1.95 nM and a GI50 (SW-620) of under 10 nM. The GI50 (HCT-15) was under 10 nM, the GI50 (SK-MEL-2) was under 10 nM and the GI50 (NCI-H226) was 27.7 nM. For the same molecule, the GI50 (MDA-MB-231) was 73.4 nM, the GI50 (TK-10) was 15.8 nM and the GI50 (A498) was under 10 nM. For the same molecule, the GI50 (SNB-19) was 26.9 nM, the GI50 (SK-OV-3) was under 10 nM and the GI50 (DU-145) was 32 nM. The GI50 (CAKI-1) was under 10 nM, the GI50 (OVCAR-8) was 21.5 nM and the GI50 [14] was 35.3 nM. The GI50 (MDA-MB-468) was 12.2 nM, the GI50 (M14) was under 10 nM and the GI50 (NCI-H322M) was 25400 nM.
